In article PMC11774580 (Chemosphere, 2024):
pIC50: −log10 of the molar value.

Key:
human OCT2 [1] = target: T1, human OCT2 (Homo sapiens, UniProt O15244); test: hOCT2 substrate; assay type: in vitro ADME; conditions: 1 μM PFAS screen
T1 sequence (O15244 1-555): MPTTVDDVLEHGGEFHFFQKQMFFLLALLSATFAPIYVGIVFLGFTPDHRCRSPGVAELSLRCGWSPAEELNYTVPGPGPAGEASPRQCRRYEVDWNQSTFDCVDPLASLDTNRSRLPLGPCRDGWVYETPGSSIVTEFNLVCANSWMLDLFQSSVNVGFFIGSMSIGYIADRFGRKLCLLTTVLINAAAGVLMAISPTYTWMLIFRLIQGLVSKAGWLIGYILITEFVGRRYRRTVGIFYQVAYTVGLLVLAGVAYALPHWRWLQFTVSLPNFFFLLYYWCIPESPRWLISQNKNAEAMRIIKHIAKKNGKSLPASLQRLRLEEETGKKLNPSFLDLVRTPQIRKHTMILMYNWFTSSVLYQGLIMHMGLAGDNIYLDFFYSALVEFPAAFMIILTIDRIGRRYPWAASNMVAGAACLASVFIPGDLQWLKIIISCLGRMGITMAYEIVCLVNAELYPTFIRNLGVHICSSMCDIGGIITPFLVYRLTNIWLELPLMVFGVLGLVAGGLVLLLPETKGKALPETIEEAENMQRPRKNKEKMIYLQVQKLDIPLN

human OAT3 [2] = target: T2, human OAT3 (Homo sapiens, UniProt Q8TCC7); test: OAT3 inhibition assay
T2 sequence (Q8TCC7 1-542): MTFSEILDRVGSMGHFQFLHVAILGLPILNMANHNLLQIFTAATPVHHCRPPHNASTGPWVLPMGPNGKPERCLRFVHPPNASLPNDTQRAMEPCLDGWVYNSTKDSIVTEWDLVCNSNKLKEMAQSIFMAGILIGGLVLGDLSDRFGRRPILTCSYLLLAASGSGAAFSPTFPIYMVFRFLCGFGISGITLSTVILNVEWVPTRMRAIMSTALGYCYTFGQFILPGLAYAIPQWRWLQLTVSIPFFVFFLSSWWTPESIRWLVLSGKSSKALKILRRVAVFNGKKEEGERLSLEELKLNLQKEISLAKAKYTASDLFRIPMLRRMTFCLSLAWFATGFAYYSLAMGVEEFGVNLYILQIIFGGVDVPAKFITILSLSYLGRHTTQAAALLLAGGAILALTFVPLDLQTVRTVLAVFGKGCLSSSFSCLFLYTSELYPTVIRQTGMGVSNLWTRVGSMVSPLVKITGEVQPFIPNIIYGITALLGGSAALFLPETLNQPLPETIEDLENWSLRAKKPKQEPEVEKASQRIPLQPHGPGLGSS

human OAT1 [3] = target: T3, human OAT1 (Homo sapiens, UniProt Q4U2R8); test: OAT1 inhibition assay
T3 sequence (Q4U2R8 1-563): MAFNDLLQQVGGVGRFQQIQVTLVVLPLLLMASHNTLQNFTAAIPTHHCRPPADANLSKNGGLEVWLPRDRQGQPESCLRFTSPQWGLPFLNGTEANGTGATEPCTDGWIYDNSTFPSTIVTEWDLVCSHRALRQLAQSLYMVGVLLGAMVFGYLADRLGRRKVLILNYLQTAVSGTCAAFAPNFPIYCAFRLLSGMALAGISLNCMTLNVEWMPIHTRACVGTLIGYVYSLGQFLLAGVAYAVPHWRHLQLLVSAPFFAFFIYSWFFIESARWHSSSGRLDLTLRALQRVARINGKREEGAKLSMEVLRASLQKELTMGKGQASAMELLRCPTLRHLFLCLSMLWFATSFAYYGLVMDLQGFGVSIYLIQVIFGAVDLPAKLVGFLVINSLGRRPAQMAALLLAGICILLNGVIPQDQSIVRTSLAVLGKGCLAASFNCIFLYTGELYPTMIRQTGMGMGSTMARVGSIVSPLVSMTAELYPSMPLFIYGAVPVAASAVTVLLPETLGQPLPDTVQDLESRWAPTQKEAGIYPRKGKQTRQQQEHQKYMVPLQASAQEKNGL

[4] = Physicochemical parameters
human OCT2 [5] = target: T1, human OCT2; test: OCT2 inhibition assay; assay type: cell-based
in vitro = conditions: dog, MDCK, pH 7.4
[6] = test system: MDCKII-LE cell monolayers; conditions: MDCK
human OAT4 = target: T4, human OAT4 (Homo sapiens, UniProt Q9NSA0); test: hOAT4 substrate; assay type: in vitro ADME
T4 sequence (Q9NSA0 1-550): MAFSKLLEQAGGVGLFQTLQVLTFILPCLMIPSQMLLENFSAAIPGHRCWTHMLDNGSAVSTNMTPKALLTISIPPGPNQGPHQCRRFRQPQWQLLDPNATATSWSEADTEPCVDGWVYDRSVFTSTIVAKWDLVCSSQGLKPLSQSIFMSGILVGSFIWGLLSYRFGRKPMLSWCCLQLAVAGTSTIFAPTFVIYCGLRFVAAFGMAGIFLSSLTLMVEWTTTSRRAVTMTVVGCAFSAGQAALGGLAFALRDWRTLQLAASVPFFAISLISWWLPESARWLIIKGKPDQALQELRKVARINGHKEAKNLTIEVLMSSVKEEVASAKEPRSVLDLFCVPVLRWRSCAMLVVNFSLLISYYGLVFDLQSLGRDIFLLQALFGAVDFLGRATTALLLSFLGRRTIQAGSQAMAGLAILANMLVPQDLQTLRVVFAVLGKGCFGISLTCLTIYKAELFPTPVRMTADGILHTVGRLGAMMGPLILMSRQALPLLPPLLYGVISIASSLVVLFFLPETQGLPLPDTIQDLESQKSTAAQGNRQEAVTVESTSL

human OAT1 [7] = target: T3, human OAT1; test: hOAT1 substrate; conditions: 1 μM PFAS screen
human OAT3 [8] = target: T2, human OAT3; test: hOAT3 substrate
[9] = PFHpA versus PFUDA; ref Zhang et al. (2013); cited from earlier work

Row | Structure (SMILES) | hOCT2 uptake ratio, % higher than mock transfectant controls (human OCT2 [1]) | Some level of inhibition against hOAT3 mediated transport (human OAT3 [2]) | Some level of inhibition against hOAT1 mediated transport (human OAT1 [3]) | neutral fraction at pH 7.4 [4] | pIC50 (human OCT2 [5]) | Papp A→B at 90 min, 2 μM (in vitro) | pIC50 (human OAT3 [2]) | Papp at pH 6.5 relative to pH 7.4, times higher [6] | Ph 7.4 A-B Papp ([6]; dog, 90 min, 2 μM, pH 7.4) | OAT4 substrate classification (human OAT4) | hOAT4 uptake ratio, % above controls (human OAT4; 1 μM PFAS screen) | Transporter Uptake Ratio OAT4 (human OAT4; 1 μM PFAS, threshold ≥ 2-fold) | Effect of probenecid co-treatment on hOAT4-mediated uptake (human OAT4; probenecid 1 mM) | hOAT1 uptake ratio, % higher than controls (human OAT1 [7]) | hOAT3 uptake ratio, fold higher than mock transfected controls (human OAT3 [8]; 1 μM PFAS screen) | Transporter Uptake Ratio OAT3 (human OAT3 [8]; 1 μM PFAS, threshold ≥ 2-fold) | hOAT3-mediated uptake, fold (human OAT3 [8]; follow-up test, without probenecid) | Effect of probenecid cotreatment on hOAT3-mediated uptake (human OAT3 [8]; probenecid 1 mM) | pIC50 (human OAT1 [3]) | human renal clearance rate, fold higher than PFUDA [9]
1 | O=C(O)C(F)(F)C(F)(F)C(F)(F)C(F)(F)C(F)(F)C(F)(F)C(F)(F)C(F)(F)C(F)(F)C(F)(F)C(F)(F)F [PFDoDA, perfluorododecanoic acid] | ~ 10% | the only exceptions | the only exceptions |  |  |  |  |  |  |  |  |  |  |  |  |  |  |  |  | 
2 | NS(=O)(=O)C(F)(F)C(F)(F)C(F)(F)C(F)(F)C(F)(F)C(F)(F)C(F)(F)C(F)(F)F [PFOSA, perfluorooctanesulfonamide] | ~ 10% |  |  | ~ 6% | 3.61 | 41.4 ×10⁻⁶ cm/s | 3.91 to 4.68 | ~ 2 times | 41.4 ×10⁻⁶ cm/s |  |  |  |  |  |  |  |  |  |  | 
3 | O=C(O)C(F)(F)C(F)(F)C(F)(F)C(F)(F)C(F)(F)C(F)(F)F [PFHpA, perfluoroheptanoic acid] |  |  |  |  |  |  | 4.99 |  |  | strong substrates | ~ 20% | + (denoted with a “+” to denote a threshold of ≥ 2-fold has been met and considered a substrate for the transporter) | effectively inhibited | 5–60% | 2.5–12 fold | + (denoted with a “+” to denote a threshold of ≥ 2-fold has been met and considered a substrate for the transporter) | 2.5–15 fold | markedly inhibited | 3.78 to 4.29 | ~ 10 fold
